Assay results published in paper PMC8284453 (Antimicrobial Agents and Chemotherapy, 2021).
≈ marks a conversion by molar mass, not a printed value. Read-outs that look alike come from different tables or passages of the source.

What was measured:
E. coli ESBL4 (CTX-M-15) [1] = test: Broth microdilution MIC; type: cell-based; conditions: Escherichia coli
[2] = tested on: Enterobacterales expressing class C cephalosporinases
[3] = tested on: E. cloacae ECL01 (TEM-72, ACT-1, P99AmpC); test: Broth microdilution MIC; type: cell-based; conditions: Enterobacter cloacae
[4] = tested on: K. pneumoniae ATCC BAA-1705 (KPC-2); test: Broth microdilution MIC; type: cell-based; conditions: Klebsiella pneumoniae, ATCCBAA1705
[5] = tested on: K. pneumoniae 752286 (OXA-48); test: Broth microdilution MIC; type: cell-based; conditions: Klebsiella pneumoniae
[6] = tested on: K. pneumoniae 752286 (OXA-48); test: 24-h time-kill assay; type: cell-based; conditions: Klebsiella pneumoniae; lowest concentration with ≥3-log10 CFU/ml reduction at 24 h; read-out: MBC
Summary of the method: (§1)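 Bacteria at 5 × 10^5 CFU/ml in CAMHB, incubated at 37°C with shaking at 200 rpm. Viable counts determined at 0, 2, 4, 6, 8 and 24 h by 0.5 log10 serial dilution with overnight regrowth; quantification limit 2 log10 CFU/ml.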

[7] = tested on: E. cloacae ECL01 (TEM-72, ACT-1, P99AmpC); test: 24-h time-kill assay; type: cell-based; conditions: Enterobacter cloacae; lowest concentration with ≥3-log10 CFU/ml reduction at 24 h; read-out: MBC
Summary of the method: as §1

[8] = tested on: K. pneumoniae ATCC BAA-1705 (KPC-2); test: 24-h time-kill assay; type: cell-based; conditions: Klebsiella pneumoniae, ATCCBAA1705; lowest concentration with ≥3-log10 CFU/ml reduction at 24 h; read-out: MBC
Summary of the method: as §1

E. coli ESBL4 (CTX-M-15) [9] = test: 24-h time-kill assay; type: cell-based
Summary of the method: as §1

[10] = tested on: Enterobacterales expressing class C cephalosporinases; test: organism not typed
[11] = tested on: Enterobacterales expressing class A carbapenemases (KPC); test: organism not typed; type: cell-based, K. pneumoniae, E. coli, E. cloacae, Klebsiella oxytoca
[12] = 25 isolates, BLI fixed at 4 μg/ml, AMC 2:1

## C[C@@H](O)[C@H]1C(=O)N2C(C(=O)O)=C(SC3CN(C4=NCCS4)C3)[C@H](C)[C@H]12 [Tebipenem]
E. coli ESBL4 (CTX-M-15) [1]
  MIC: ≤ 0.06 µg/mL
[2]; C. freundii 134390 (AmpC, TEM-1)
  MIC: 0.03 µg/mL (≈ 0.0782 µM)
[2]; E. aerogenes 110099 (AmpC, SHV-12)
  MIC: 0.12 µg/mL (≈ 0.313 µM)
[2]; E. aerogenes 111707 (AmpC, TEM-1)
  MIC: 0.03 µg/mL (≈ 0.0782 µM)
[2]; E. aerogenes 111902 (AmpC, TEM-1)
  MIC: 0.12 µg/mL (≈ 0.313 µM)
[2]; E. coli 128 (AmpC, SHV-12, TEM-1, Toho-2)
  MIC: ≤ 0. 016 μg/ml
[2]; E. coli 3102 (AmpC, CTX-M-15, TEM-1)
  MIC: ≤ 0. 016 μg/ml
[2]; E. coli CH1 (AmpC, CTX-M-15, SHV-1, SHV-5, TEM-1)
  MIC: 0.06 µg/mL (≈ 0.156 µM)
[2]; E. coli EC469 (AmpC, SHV-12, TEM-1)
  MIC: ≤ 0. 016 μg/ml
[2]; E. coli J53 (AmpC, SHV-5, TEM-1)
  MIC: ≤ 0. 016 μg/ml
[2]; E. coli SI-P026TC (CMY-2, TEM-1)
  MIC: 0.12 µg/mL (≈ 0.313 µM)
[2]; E. coli SI-PO26 (AmpC, CMY-2, TEM-1)
  MIC: 0.03 µg/mL (≈ 0.0782 µM)
[2]; K. pneumoniae 129032 (MOX-2, SHV-12, TEM-1)
  MIC: 0.03 µg/mL (≈ 0.0782 µM)
[2]; K. pneumoniae 178279 (AmpC, SHV-12, TEM-1)
  MIC: 0.03 µg/mL (≈ 0.0782 µM)
[2]; K. pneumoniae 212027 (AmpC, FOX-5, TEM-1)
  MIC: 0.03 µg/mL (≈ 0.0782 µM)
[2]; K. pneumoniae 217917 (CMY-2, TEM-1)
  MIC: 0.06 µg/mL (≈ 0.156 µM)
[2]; K. pneumoniae 301313 (AmpC, SHV-12, TEM-1)
  MIC: 0.06 µg/mL (≈ 0.156 µM)
[2]; K. pneumoniae 398845 (CMY-2, SHV-12, TEM-1)
  MIC: 0.03 µg/mL (≈ 0.0782 µM)
[2]; K. pneumoniae SI-F100 (CMY-2, SHV-5, TEM-1)
  MIC: ≤ 0. 016 μg/ml
[2]; P. mirabilis SI-F014 (AmpC, TEM-72)
  MIC: 2 µg/mL (≈ 5.22 µM)
[2]; S. marcescens 132253 (AmpC, CTX-M-3, OXA-1, SHV-12, TEM-1)
  MIC: 0.5 µg/mL (≈ 1.3 µM)
[2]; S. marcescens 134434 (AmpC, SHV-12, TEM-1)
  MIC: 0.5 µg/mL (≈ 1.3 µM)
[2]; S. marcescens 142397 (AmpC, SHV-7, TEM-1)
  MIC: 0.25 µg/mL (≈ 0.652 µM)
[2]; S. marcescens 156212 (AmpC, SHV-12, TEM-1)
  MIC: 0.25 µg/mL (≈ 0.652 µM)
[2]; S. marcescens 192478 (AmpC, SHV-12, TEM-1)
  MIC: 0.12 µg/mL (≈ 0.313 µM)
[2]; S. marcescens 218068 (AmpC, SHV-7, TEM-1)
  MIC: 0.25 µg/mL (≈ 0.652 µM)
[3]
  MIC: 0.25 µg/mL (≈ 0.652 µM)
[4]
  MIC: 32 µg/mL (≈ 83.4 µM)
[5]
  MIC: 16 µg/mL (≈ 41.7 µM)
[6]
  MBC: > 32 µg/mL
[7]
  MBC: 0.25 µg/mL (≈ 0.652 µM)
[8]
  MBC: 32 µg/mL (≈ 83.4 µM)
E. coli ESBL4 (CTX-M-15) [9]; Escherichia coli, lowest concentration with ≥3-log10 CFU/ml reduction at 24 h, read-out: MBC
  MBC: 0.06 µg/mL (≈ 0.156 µM)
E. coli ESBL4 (CTX-M-15) [9]; Fig. 3a, CTB 2 μg/ml with BLI at 4 μg/ml, CTB alone 8 μg/ml, amoxicillin 8/clavulanic acid 4 μg/ml, penems 2 μg/ml
  outcome of 24-h time-kill assay: bactericidal activity
[10]
  MIC50: 0.06 µg/mL (≈ 0.156 µM)
  MIC90: 0.5 µg/mL (≈ 1.3 µM)
[11]
  MIC50: ≥ 64 µg/mL
  MIC90: ≥ 64 µg/mL
[11]; [12]
  MIC50: ≥64 µg/mL
  MIC90: ≥64 µg/mL
[11]; E. cloacae 847426 (KPC)
  MIC: ≥ 64 µg/mL
[11]; E. cloacae 847429 (KPC)
  MIC: ≥ 64 µg/mL
[11]; E. cloacae OIMGH49 (p99 AmpC, ACT-2, KPC-2, TEM-1)
  MIC: 32 µg/mL (≈ 83.4 µM)
[11]; E. coli 786978 (KPC)
  MIC: ≥ 64 µg/mL
[11]; K. oxytoca 847537 (KPC)
  MIC: ≥ 64 µg/mL
[11]; K. oxytoca 847539 (KPC)
  MIC: 8 µg/mL (≈ 20.9 µM)
[11]; K. pneumoniae 155140 (AmpC, KPC-2, SHV-12, TEM-1)
  MIC: ≥ 64 µg/mL
[11]; K. pneumoniae 845661 (KPC)
  MIC: ≥ 64 µg/mL
[11]; K. pneumoniae 845662 (KPC)
  MIC: ≥ 64 µg/mL
[11]; K. pneumoniae 845665 (KPC)
  MIC: ≥ 64 µg/mL
[11]; K. pneumoniae 845667 (KPC)
  MIC: ≥ 64 µg/mL
[11]; K. pneumoniae 845670 (KPC)
  MIC: 32 µg/mL (≈ 83.4 µM)
[11]; K. pneumoniae 845904 (KPC)
  MIC: ≥ 64 µg/mL
[11]; K. pneumoniae 847204 (KPC)
  MIC: ≥ 64 µg/mL
[11]; K. pneumoniae 847375 (KPC)
  MIC: ≥ 64 µg/mL
[11]; K. pneumoniae 847378 (KPC)
  MIC: ≥ 64 µg/mL
